Data: ChEMBL document CHEMBL1201862, “PubChem BioAssay data set” (2004)
Values belong to the molecule of their own block, whether it stands above or below them. Calls of active or inactive are those of the source. For most assays here, no stated cut-off is given here; in the data, actives have a measured EC50 and inactives only a lower limit.

Tests used:
cells [1] = assay type: functional, cell-based
cells [2] = assay type: functional, cell-based; remark: listed apart in the source
[3] = target: T1, RNA-binding protein pos-1 (Caenorhabditis elegans, UniProt G5EF15); assay: inhibitors of POS-1/mex-3 RNA binding, dose response, biochemical, fluorescence polarization (AID 1964);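 further: purified POS-1 fused to maltose binding protein made in E. coli; potency of compounds blocking POS-1 binding to fluorescent RNA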
T1 sequence (G5EF15 whole entry): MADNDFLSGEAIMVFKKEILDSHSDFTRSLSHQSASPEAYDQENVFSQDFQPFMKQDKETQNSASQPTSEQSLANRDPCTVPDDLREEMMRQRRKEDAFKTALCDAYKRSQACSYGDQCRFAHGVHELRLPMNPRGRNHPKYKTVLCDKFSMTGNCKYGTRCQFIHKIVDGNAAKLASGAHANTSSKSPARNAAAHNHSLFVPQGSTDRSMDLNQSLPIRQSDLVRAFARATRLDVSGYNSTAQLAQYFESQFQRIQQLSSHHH

[4] = target: T2, Zinc finger protein mex-5 (Caenorhabditis elegans, UniProt Q9XUB2); assay: MEX-5/TCR-2 RNA interaction inhibitors, dose response, biochemical, C. elegans, fluorescence polarization (AID 1960)
T2 sequence (Q9XUB2 whole entry): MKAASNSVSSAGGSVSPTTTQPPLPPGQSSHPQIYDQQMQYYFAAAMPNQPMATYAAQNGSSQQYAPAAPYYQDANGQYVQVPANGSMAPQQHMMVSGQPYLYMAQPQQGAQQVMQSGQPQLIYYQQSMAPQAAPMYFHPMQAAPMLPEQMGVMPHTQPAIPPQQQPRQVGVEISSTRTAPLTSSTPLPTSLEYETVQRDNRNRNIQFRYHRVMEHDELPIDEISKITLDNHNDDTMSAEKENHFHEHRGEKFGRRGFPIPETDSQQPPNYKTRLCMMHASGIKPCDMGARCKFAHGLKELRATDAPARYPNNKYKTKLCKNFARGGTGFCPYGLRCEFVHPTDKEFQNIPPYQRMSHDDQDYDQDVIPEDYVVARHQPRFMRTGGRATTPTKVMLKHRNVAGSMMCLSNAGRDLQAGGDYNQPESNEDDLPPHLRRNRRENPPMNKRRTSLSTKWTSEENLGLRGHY

[5] = target: T3, Heat shock factor protein 1 (Mus musculus, UniProt P38532); assay: inhibition of MG132-induced HSE-luciferase signal, confirmation, cell-based, NIH3T3, luminescence, dose retest (AID 2382); assay type: functional;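 further: NIH3T3 fibroblasts with HSF1-driven luciferase reporter stressed by proteasome inhibitor MG132; luminescence from HSF1-driven luciferase expression after 8 hours of MG132 stress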
T3 sequence (P38532 whole entry): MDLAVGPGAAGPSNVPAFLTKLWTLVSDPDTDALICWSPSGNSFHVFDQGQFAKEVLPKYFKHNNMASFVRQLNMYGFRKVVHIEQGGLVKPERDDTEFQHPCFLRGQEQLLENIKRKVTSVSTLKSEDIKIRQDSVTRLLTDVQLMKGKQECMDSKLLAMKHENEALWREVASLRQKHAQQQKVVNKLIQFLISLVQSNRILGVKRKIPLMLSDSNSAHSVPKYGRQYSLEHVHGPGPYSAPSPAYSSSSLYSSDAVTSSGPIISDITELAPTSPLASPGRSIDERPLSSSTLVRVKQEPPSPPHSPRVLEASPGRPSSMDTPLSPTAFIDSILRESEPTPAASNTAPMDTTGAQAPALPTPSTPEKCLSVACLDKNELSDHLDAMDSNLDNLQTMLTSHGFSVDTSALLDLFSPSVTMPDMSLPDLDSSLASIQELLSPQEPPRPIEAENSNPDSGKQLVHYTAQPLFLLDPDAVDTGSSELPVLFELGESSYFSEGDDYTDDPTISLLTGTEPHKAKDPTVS

Caspase-3 = target: T4, Caspase-3 (Homo sapiens, UniProt P42574); assay type: functional;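 further: Dose-response selectivity test against caspase-3 for candidate inhibitors of sentrin-specific proteases (SENPs)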
T4 sequence (P42574 whole entry): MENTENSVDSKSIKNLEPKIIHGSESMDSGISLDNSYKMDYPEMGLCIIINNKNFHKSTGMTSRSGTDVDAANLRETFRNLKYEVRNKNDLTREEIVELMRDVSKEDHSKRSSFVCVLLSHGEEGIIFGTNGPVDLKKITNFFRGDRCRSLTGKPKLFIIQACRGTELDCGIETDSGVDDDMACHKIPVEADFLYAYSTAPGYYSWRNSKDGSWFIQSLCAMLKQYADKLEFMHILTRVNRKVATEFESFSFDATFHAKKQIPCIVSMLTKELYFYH

[6] = target: T5, Sentrin-specific protease 7 (Homo sapiens, UniProt Q9BQF6); assay type: functional;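 further: Luminescence-based dose-response confirmation of ultra-high-throughput screening hits, measuring inhibition of SENP7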
T5 sequence (Q9BQF6 whole entry): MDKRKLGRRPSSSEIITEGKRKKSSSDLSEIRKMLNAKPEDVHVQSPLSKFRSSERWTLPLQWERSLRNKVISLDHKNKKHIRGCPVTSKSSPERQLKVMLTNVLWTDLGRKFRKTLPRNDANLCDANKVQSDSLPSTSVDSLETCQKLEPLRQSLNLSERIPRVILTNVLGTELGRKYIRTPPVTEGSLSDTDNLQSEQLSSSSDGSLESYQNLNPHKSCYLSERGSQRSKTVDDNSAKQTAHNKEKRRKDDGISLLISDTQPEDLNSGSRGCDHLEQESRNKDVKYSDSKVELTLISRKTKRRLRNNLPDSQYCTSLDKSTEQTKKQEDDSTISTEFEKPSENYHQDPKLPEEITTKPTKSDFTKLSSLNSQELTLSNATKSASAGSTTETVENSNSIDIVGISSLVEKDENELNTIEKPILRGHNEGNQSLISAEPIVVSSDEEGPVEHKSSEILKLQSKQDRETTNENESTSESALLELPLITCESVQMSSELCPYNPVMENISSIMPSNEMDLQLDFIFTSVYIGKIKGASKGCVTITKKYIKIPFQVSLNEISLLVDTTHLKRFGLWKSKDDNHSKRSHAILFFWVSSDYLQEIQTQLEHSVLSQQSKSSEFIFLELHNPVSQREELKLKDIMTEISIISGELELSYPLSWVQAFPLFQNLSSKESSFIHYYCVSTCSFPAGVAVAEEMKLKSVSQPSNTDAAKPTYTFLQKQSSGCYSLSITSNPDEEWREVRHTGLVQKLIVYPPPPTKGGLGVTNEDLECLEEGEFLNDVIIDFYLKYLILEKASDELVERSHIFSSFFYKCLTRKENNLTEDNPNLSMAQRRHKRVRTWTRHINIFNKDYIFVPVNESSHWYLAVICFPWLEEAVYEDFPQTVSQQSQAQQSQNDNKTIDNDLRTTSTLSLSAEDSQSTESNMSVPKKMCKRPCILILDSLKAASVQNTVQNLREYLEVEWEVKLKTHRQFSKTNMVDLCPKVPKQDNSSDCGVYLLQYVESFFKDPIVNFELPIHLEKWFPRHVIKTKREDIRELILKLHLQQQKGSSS

[7] = target: T6, Sentrin-specific protease 6 (Homo sapiens, UniProt Q9GZR1); assay type: functional;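 further: Luminescence-based dose-response confirmatory assay of SENP6 inhibition, following up an ultra-high-throughput screen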
T6 sequence (Q9GZR1 whole entry): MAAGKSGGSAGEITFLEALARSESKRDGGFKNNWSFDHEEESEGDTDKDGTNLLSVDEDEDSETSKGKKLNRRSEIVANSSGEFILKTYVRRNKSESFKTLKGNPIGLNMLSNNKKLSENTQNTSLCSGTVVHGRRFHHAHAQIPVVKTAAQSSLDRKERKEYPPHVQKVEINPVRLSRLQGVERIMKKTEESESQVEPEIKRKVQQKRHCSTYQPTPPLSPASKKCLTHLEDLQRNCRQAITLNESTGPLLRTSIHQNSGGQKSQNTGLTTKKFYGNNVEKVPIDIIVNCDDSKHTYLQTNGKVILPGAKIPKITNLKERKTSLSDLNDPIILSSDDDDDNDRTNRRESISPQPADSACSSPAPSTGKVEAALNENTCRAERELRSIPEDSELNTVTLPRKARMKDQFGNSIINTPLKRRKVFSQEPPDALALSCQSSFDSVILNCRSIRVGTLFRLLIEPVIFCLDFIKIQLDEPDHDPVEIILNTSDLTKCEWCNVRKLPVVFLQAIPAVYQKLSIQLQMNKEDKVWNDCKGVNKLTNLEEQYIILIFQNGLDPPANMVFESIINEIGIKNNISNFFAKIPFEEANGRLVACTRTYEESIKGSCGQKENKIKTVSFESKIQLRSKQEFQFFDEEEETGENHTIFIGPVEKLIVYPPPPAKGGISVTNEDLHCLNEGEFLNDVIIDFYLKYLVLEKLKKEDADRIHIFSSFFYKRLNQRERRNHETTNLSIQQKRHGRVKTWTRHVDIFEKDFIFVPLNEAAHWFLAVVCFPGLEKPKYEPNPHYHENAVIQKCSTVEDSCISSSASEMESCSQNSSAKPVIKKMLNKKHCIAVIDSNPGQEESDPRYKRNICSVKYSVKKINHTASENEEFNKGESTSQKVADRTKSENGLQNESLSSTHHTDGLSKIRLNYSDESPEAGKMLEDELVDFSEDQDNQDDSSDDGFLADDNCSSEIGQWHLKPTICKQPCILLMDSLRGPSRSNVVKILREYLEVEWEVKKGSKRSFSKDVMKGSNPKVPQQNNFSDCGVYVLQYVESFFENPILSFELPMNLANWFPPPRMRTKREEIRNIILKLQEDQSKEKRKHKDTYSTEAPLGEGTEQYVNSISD

[8] = target: T7, Sentrin-specific protease 8 (Homo sapiens, UniProt Q96LD8); assay type: functional;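 further: luminescence read-out of SENP8 inhibition, dose-response confirmation following an ultra-high-throughput screen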
T7 sequence (Q96LD8 whole entry): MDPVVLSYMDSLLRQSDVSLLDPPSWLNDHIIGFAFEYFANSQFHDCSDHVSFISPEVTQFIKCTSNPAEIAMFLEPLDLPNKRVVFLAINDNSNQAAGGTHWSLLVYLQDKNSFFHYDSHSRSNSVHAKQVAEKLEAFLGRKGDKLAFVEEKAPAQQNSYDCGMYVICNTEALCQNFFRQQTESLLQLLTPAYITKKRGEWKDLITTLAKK

[9] = target: T3, Heat shock factor protein 1; assay: HSF1 potentiators in luciferase reporter cells, confirmation, cell-based, NIH3T3, luminescence, dose retest (AID 435004); assay type: functional;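 further: stress induced by proteasome inhibitor MG132 added 30 min after compound; luciferase reporter driven by HSF1 response element in NIH3T3 cells; actives raise luminescence as potentiators of the MG132 stress response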

SMILES: COc1ccccc1CC(=N)NO
- EC50 (cells [1]): > 350 µM (not active)
- EC50 (cells [2]): > 350 µM (not active)

- EC50 [3]: 175 µM (active)
- EC50 [4]: > 300 µM (not active)
SMILES: Cc1ccc(CN(C)C(=O)CC2C(=O)NCCN2CC2CCCCC2)cc1 (configuration not stated)

- EC50 [5]: > 195 µM (not active)
SMILES: C#Cc1ccc([C@@H]2C=C(C(=O)OCC=C)O[C@H](OCc3ccc(CO)cc3)C2)cc1

SMILES: CC(C)c1cc(-c2cc(C(=O)NCc3ccccc3)on2)nc(NC2CCCC2)n1
- EC50 (cells [1]): > 350 µM (not active)
- EC50 (cells [2]): > 350 µM (not active)

SMILES: COc1ccc(Cc2nnc(SCC(=O)NC3CCCCC3)n2C)cc1
- EC50 (cells [1]): > 350 µM (not active)
- EC50 (cells [2]): > 350 µM (not active)

- EC50 [3]: > 300 µM (not active)
- EC50 [4]: > 300 µM (not active)
SMILES: CCOC(=O)c1ccc(-n2c(CCC(=O)O)ccc2-c2ccc(F)cc2)cc1

- IC50 (Caspase-3): 7.31 µM (active)
- IC50 [6]: 3.62 µM (active)
- IC50 [7]: 5.18 µM (active)
SMILES: CNC(=S)Nc1ccc(-c2nc3ccc(C)cc3s2)cc1
- IC50 [8]: 5.47 µM (active)

- IC50 (Caspase-3): 29.8 µM (active)
- IC50 [6]: 6.22 µM (active)
- IC50 [7]: > 100 µM (inactive)
SMILES: Cc1cccc(-c2noc(-c3c(C)noc3C)n2)c1
- IC50 [8]: > 100 µM (inactive)

- IC50 (Caspase-3): 14 µM (active)
- IC50 [6]: 7.6 µM (active)
- IC50 [7]: 24.9 µM (active)
SMILES: Cc1csc(NC(=O)c2ccc(Br)s2)n1
- IC50 [8]: 27.4 µM (active)

- EC50 [5]: > 195 µM (not active)
SMILES: Cc1noc(C)c1CSc1ncnc2sc3c(c12)CCC3

SMILES: CCOc1ccc(NC(=O)CC2C(=O)Nc3ccccc3N2C(=O)c2ccccc2)cc1 (configuration not stated)
- EC50 (cells [1]): > 350 µM (not active)
- EC50 (cells [2]): > 350 µM (not active)

- EC50 [3]: 22.6 µM (active)
- EC50 [4]: 154 µM (inconclusive)
SMILES: CCN1C(=O)/C(=C\N(C)C)NC1=S

SMILES: CCCCc1nnc(NC(=O)c2ccc3nc(O)c(O)nc3c2)s1
- EC50 (cells [1]): > 350 µM (not active)
- EC50 (cells [2]): > 350 µM (not active)

- EC50 [5]: > 195 µM (not active)
SMILES: C=CCOc1ccc(C(c2c(C)n(C)n(-c3ccccc3)c2=O)c2c(C)n(C)n(-c3ccccc3)c2=O)cc1

- EC50 [3]: > 300 µM (not active)
- EC50 [4]: > 300 µM (not active)
SMILES: COc1ccc(CCC(=O)Nc2cccc(Cl)c2)cc1

- EC50 [3]: > 300 µM (not active)
- EC50 [4]: > 300 µM (not active)
SMILES: CCOC(=O)C1=C(C)OC(N)=C(C#N)C1c1ccc(O)c(OC)c1 (configuration not stated)

- IC50 (Caspase-3): 18.9 µM (active)
- IC50 [6]: 7.61 µM (active)
- EC50 [9]: 20.3 µM (active)
- IC50 [7]: 24.6 µM (active)
SMILES: Cc1ccc(C(=O)OCC(=O)c2ccc(Cl)s2)s1
- IC50 [8]: 29.7 µM (active)

- EC50 [5]: > 195 µM (not active)
SMILES: Cn1c(C(=O)NN)cc2cc(OCc3ccccc3)ccc21

- EC50 [3]: > 300 µM (not active)
- EC50 [4]: 45.5 µM (active)
SMILES: CCNC(=O)c1cc2c(=O)n3cccc(C)c3nc2n(Cc2ccc(C)cc2)c1=N

- EC50 [5]: > 195 µM (not active)
SMILES: CNC(=O)Cn1nc(C)c2ccccc2c1=O

- EC50 [5]: > 195 µM (not active)
SMILES: CCc1ccc(OC(C)C(=O)N(Cc2ccco2)C2CCS(=O)(=O)C2)cc1 (configuration not stated)

SMILES: Cc1noc(C)c1COC(=O)C1CC(O)CN1S(=O)(=O)c1ccc(Cl)cc1 (configuration not stated)
- EC50 (cells [1]): > 350 µM (not active)
- EC50 (cells [2]): > 350 µM (not active)

- IC50 (Caspase-3): 37.1 µM (active)
- IC50 [6]: 7.79 µM (active)
- IC50 [7]: 10.6 µM (active)
SMILES: Cc1ccc(Cn2ccs/c2=N\C(=O)COC(=O)c2ccc(O)cc2O)cc1
- IC50 [8]: > 100 µM (inactive)

- EC50 [5]: > 195 µM (not active)
SMILES: COc1ccc(/C=N/NC(=O)CN(C)S(=O)(=O)c2ccc(NC(C)=O)cc2)cc1
